Experimental data as given in DBAASP.
≈ marks a conversion by molar mass, not a printed value. Where “and” joins values, the source holds several entries; their conditions need not be identical. Equal entries are not always repeated.

Columns and labels:
Test in all cases: ≥ marks a high value that may be exact or a test limit, other limits are often not marked, values filed in µg/mL are converted to µM
[1] = system: Bacillus megaterium
[2] = system: Staphylococcus aureus
[3] = system: Staphylococcus epidermidis ATCC 35984
[4] = system: Staphylococcus aureus ATCC 25923
[5] = system: Staphylococcus aureus ATCC 33591
[6] = system: Pseudomonas aeruginosa ATCC 27853
[7] = system: Pseudomonas aeruginosa ATCC 13388
[8] = system: Escherichia coli ATCC 11219
[9] = system: Salmonella enterica subsp. enterica serovar Typhimurium ATCC 14028
[10] = system: Klebsiella pneumoniae ATCC 10031
[11] = system: Staphylococcus aureus ATCC 6538
[12] = system: Pectobacterium carotovorum subsp. carotovorum DSM 30168
[13] = system: Alternaria alternata
[14] = system: Botrytis cinerea
[15] = system: Xanthomonas vesicatoria DSM 50861
[16] = system: Pseudomonas syringae pv. syringae DSM 10604
[17] = system: Clavibacter michiganensis subsp. michiganensis DSM 46294
[18] = system: Pseudomonas corrugata DSM 7228
[19] = system: Cladosporium herbarum
[20] = system: Pseudomonas syringae pv. tomato DC3000
[21] = system: Staphylococcus aureus ATCC 43300
[22] = system: Listeria monocytogenes ATCC 19115
[23] = system: Klebsiella pneumoniae ATCC 13883
[24] = system: Salmonella enterica subsp. enterica serovar Enteritidis ATCC 13076
[25] = system: Escherichia coli ATCC 25922
[26] = system: Staphylococcus aureus ATCC BAA-39
[27] = system: Escherichia coli BL21(DE3)
[28] = system: Escherichia coli JM109
[29] = system: Cupriavidus necator H16
[30] = system: Pseudomonas putida GPp104
[31] = system: Xanthomonas fragariae Xf349-9A
[32] = system: Pseudomonas syringae pv. actinidiae Psa3700.1.1
[33] = system: Erwinia amylovora PMV 6076
[34] = system: Xanthomonas arboricola pv. pruni CFBP 5563
[35] = system: Pseudomonas syringae pv. syringae EPS 94
[36] = system: Xanthomonas campestris pv. Vesicatoria 2133-2

## CC[C@H](C)[C@H](NC(=O)[C@H](Cc1cnc[nH]1)NC(=O)[C@@H]1CCCN1C(=O)[C@@H](NC(=O)[C@H](CC(C)C)NC(=O)[C@H](CO)NC(=O)[C@H](CC(C)C)NC(=O)[C@@H](N)Cc1ccccc1)[C@@H](C)CC)C(=O)N[C@H](C(=O)N[C@@H](CO)C(=O)NCC(=O)N[C@H](C(=O)N[C@@H](C)C(=O)N[C@@H](C)C(=O)N[C@@H](CC(C)C)C(=O)N[C@@H](C)C(=O)N[C@@H](CCCCN)C(=O)N[C@@H](Cc1cnc[nH]1)C(=O)N[C@@H](CC(C)C)C(=O)NCC(=O)O)C(C)C)C(C)C [FLSLIPHIVSGVAALAKHLG]
[1]
  MIC: 3.1 µM (≈ 6.33 µg/mL)
[2]
  MIC: 12.5 µM (≈ 25.5 µg/mL)

## CC[C@H](C)[C@H](NC(=O)CN)C(=O)NCC(=O)N[C@@H](CCCCN)C(=O)N[C@@H](Cc1ccccc1)C(=O)N[C@@H](CC(C)C)C(=O)N[C@@H](CCCCN)C(=O)N[C@@H](CCCCN)C(=O)N[C@@H](C)C(=O)N[C@@H](CCCCN)C(=O)N[C@@H](CCCCN)C(=O)N[C@@H](Cc1ccccc1)C(N)=O [GIGKFLKKAKKF]
[3]
  MIC: ≥ 33.2 µM
[4]
  MIC: 375 µM (≈ 512 µg/mL)
[5]
  MIC: ≥ 375 µM
[6]
  MIC: 4.15 µM (≈ 5.65 µg/mL)

## CC[C@H](C)[C@H](NC(=O)CN)C(=O)N[C@@H](Cc1cnc[nH]1)C(=O)N[C@@H](CC(=O)O)C(=O)N[C@H](C(=O)N[C@@H](C)C(=O)N[C@@H](CCCCN)C(=O)N[C@@H](Cc1ccc(O)cc1)C(=O)NCC(=O)N[C@@H](CCCCN)C(=O)N1CCC[C@H]1C(=O)N[C@@H](CO)C(N)=O)[C@@H](C)CC [GIHDIAKYGKPS]
[7]
  MIC: ≥ 50 µM
[8]
  MIC: ≥ 50 µM
[9]
  MIC: > 50 µM
[10]
  MIC: 20 µM (≈ 25.7 µg/mL)
[11]
  MIC: 5 µM (≈ 6.42 µg/mL)

## CC[C@H](C)[C@H](NC(=O)[C@H](CC(C)C)NC(=O)[C@H](CCCCN)NC(=O)[C@H](CCCN=C(N)N)NC(=O)[C@@H](N)CCCCN)C(=O)N[C@@H](Cc1ccccc1)C(=O)N[C@@H](CC(C)C)C(=O)N[C@@H](C)C(=O)N[C@@H](C)C(=O)N[C@@H](Cc1ccccc1)C(=O)N[C@@H](CC(C)C)C(=O)N[C@@H](C)C(=O)N[C@@H](C)C(=O)N[C@@H](CC(C)C)C(=O)N[C@@H](C)C(=O)N[C@@H](CC(C)C)C(=O)N[C@@H](Cc1ccccc1)C(=O)N[C@@H](CCCCN)C(=O)N[C@@H](CCCCN)C(=O)N[C@@H](CCCN=C(N)N)C(N)=O [KRKLIFLAAFLAALALFKKR]
[12]
  MIC: 17.2 µM (≈ 40 µg/mL)
[13]
  MIC: ≥ 43.1 µM
[14]
  MIC: ≥ 43.1 µM
[15]
  MIC: 8.62 µM (≈ 20 µg/mL)
[16]
  MIC: 17.2 µM (≈ 40 µg/mL)
[17]
  MIC: 1.08 µM (≈ 2.5 µg/mL)
[18]
  MIC: 17.2 µM (≈ 40 µg/mL)
[19]
  MIC: 17.2 µM (≈ 40 µg/mL)
[20]
  MIC: 17.2 µM (≈ 40 µg/mL)

## CC[C@H](C)[C@H](NC(=O)[C@H](CCCCN)NC(=O)[C@H](CCCN=C(N)N)NC(=O)[C@H](CC(C)C)NC(=O)[C@H](Cc1ccccc1)NC(=O)[C@H](CCCN=C(N)N)NC(=O)CNC(=O)[C@H](Cc1ccccc1)NC(=O)[C@H](CCCN=C(N)N)NC(=O)CNC(=O)[C@H](CCCN=C(N)N)NC(=O)[C@H](CCC(N)=O)NC(=O)[C@@H](NC(=O)[C@@H](N)CC(C)C)C(C)C)C(=O)N[C@@H](CCCN=C(N)N)C(=O)O [LVQRGRFGRFLRKIR]
[4]
  MIC: 8 µM and 16 µM
[21]
  MIC: 5.66 µM and 16 µM
[22]
  MIC: 5.66 µM and 11.3 µM
[23]
  MIC: 8 µM and 16 µM
[24]
  MIC: 4 µM and 5.66 µM
[25]
  MIC: 16 µM (≈ 30.4 µg/mL)
[26]
  MIC: 5.66 µM and 16 µM

## CC[C@H](C)[C@H](NC(=O)[C@H](Cc1ccc(O)cc1)NC(=O)[C@@H](NC(=O)[C@@H]1CCCN1C(=O)[C@H](CCCN=C(N)N)NC(=O)[C@@H](NC(=O)CNC(=O)[C@@H](N)CCCN=C(N)N)C(C)C)C(C)C)C(=O)N1CCC[C@H]1C(=O)N[C@@H](CCC(N)=O)C(=O)N1CCC[C@H]1C(=O)N[C@@H](CCCN=C(N)N)C(=O)N1CCC[C@H]1C(=O)N1CCC[C@H]1C(=O)N[C@@H](Cc1cnc[nH]1)C(=O)N1CCC[C@H]1C(=O)N[C@@H](CCCN=C(N)N)C(=O)N[C@@H](CC(C)C)C(=O)O [RGVRPVYIPQPRPPHPRL]
[27]
  MIC: 0.313 µM (≈ 0.668 µg/mL)
[28]
  MIC: 6.25 µM (≈ 13.3 µg/mL)
[29]
  MIC: 25 µM (≈ 53.4 µg/mL)
[30]
  MIC: 6.25 µM (≈ 13.3 µg/mL)

## CC[C@H](C)[C@H](NC(=O)[C@H](Cc1ccc(O)cc1)NC(=O)[C@@H](NC(=O)[C@@H]1CCCN1C(=O)[C@H](CCCN=C(N)N)NC(=O)[C@@H]1CCCN1C(=O)[C@H](CC(C)C)NC(=O)[C@@H](N)CCCN=C(N)N)C(C)C)C(=O)N1CCC[C@H]1C(=O)N[C@@H](CCC(N)=O)C(=O)N1CCC[C@H]1C(=O)N[C@@H](CCCN=C(N)N)C(=O)N1CCC[C@H]1C(=O)N1CCC[C@H]1C(=O)N[C@@H](Cc1cnc[nH]1)C(=O)N1CCC[C@H]1C(=O)N[C@@H](CCCN=C(N)N)C(=O)N[C@@H](CC(C)C)C(=O)O [RLPRPVYIPQPRPPHPRL]
[27]
  MIC: 1.25 µM (≈ 2.74 µg/mL)
[28]
  MIC: 25 µM (≈ 54.7 µg/mL)
[29]
  MIC: ≥ 50 µM
[30]
  MIC: 12.5 µM (≈ 27.4 µg/mL)

## CC[C@H](C)[C@H](NC(=O)[C@@H](NC(=O)[C@@H](NC(=O)[C@@H](NC(=O)[C@@H](NC(=O)[C@H](CCCCN)NC(=O)[C@@H]1CCCN1C(=O)[C@H](CCCN=C(N)N)NC(=O)[C@H](Cc1ccccc1)NC(=O)[C@H](CCCN=C(N)N)NC(=O)[C@@H](N)CCCN=C(N)N)C(C)C)[C@@H](C)O)[C@@H](C)CC)[C@@H](C)O)C(=O)N[C@@H](CCC(N)=O)C(=O)NCC(=O)N[C@@H](CO)C(=O)N[C@@H](C)C(=O)N[C@@H](CCCN=C(N)N)C(=O)N[C@@H](Cc1ccccc1)C(=O)O [RRFRPKVTITIQGSARF]
[4]
  MIC: 2.83 µM and 4 µM
[21]
  MIC: 2 µM and 4 µM
[22]
  MIC: 2.83 µM and 4 µM
[23]
  MIC: 4 µM (≈ 8.13 µg/mL)
[24]
  MIC: 4 µM (≈ 8.13 µg/mL)
[25]
  MIC: 5.66 µM and 8 µM
[26]
  MIC: 4 µM (≈ 8.13 µg/mL)

## CC(C)C[C@H](NC(=O)[C@H](CCCN=C(N)N)NC(=O)[C@H](CC(N)=O)NC(=O)[C@H](CCCCN)NC(=O)[C@H](CCC(=O)O)NC(=O)[C@H](CCC(=O)O)NC(=O)[C@H](CCC(=O)O)NC(=O)[C@@H](NC(=O)[C@H](CC(C)C)NC(=O)[C@H](CCCCN)NC(=O)[C@@H](NC(=O)[C@H](CCCCN)NC(=O)[C@H](CCCCN)NC(=O)[C@@H](N)[C@@H](C)O)[C@@H](C)O)[C@@H](C)O)C(N)=O [TKKTKLTEEEKNRL]
[31]
  MIC: ≥ 50 µM
[32]
  MIC: ≥ 50 µM
[33]
  MIC: ≥ 50 µM
[34]
  MIC: ≥ 50 µM
[35]
  MIC: ≥ 50 µM
[36]
  MIC: ≥ 50 µM

## CC[C@H](C)[C@H](NC(=O)CNC(=O)[C@@H](N)Cc1c[nH]c2ccccc12)C(=O)N[C@@H](CCCN=C(N)N)C(=O)N[C@@H](CCCN=C(N)N)C(=O)N[C@H](C(=O)N[C@@H](CC(C)C)C(=O)N[C@@H](CCCCN)C(=O)N[C@@H](Cc1ccc(O)cc1)C(=O)NCC(=O)N[C@@H](CCCCN)C(=O)N[C@@H](CCCN=C(N)N)C(=O)N[C@@H](CO)C(=O)O)[C@@H](C)CC [WGIRRILKYGKRS]
[7]
  MIC: 4 µM (≈ 6.53 µg/mL)
[8]
  MIC: 10 µM (≈ 16.3 µg/mL)
[9]
  MIC: 10 µM (≈ 16.3 µg/mL)
[10]
  MIC: 20 µM (≈ 32.7 µg/mL)
[11]
  MIC: 4 µM (≈ 6.53 µg/mL)
